Measured values published in patent publication US11840686B2, “Modulation of prekallikrein (PKK) expression” (Ionis Pharmaceuticals, Inc., priority 2013, dated 2023).
Strand notation (5' to 3'): a small letter for the sugar, then the base; units joined by * are phosphorothioate-linked, units joined directly phosphodiester-linked; [ ] holds rarer units or linkages, { } end groups; capitals alone tell only the bases. e = 2'-O-(2-methoxyethyl) (MOE); k = constrained ethyl (cEt); [5mC] = 5-methylcytosine; d = 2'-deoxy (DNA)

Tested on: human PKK mRNA
Assay: Antisense inhibition of human PKK mRNA in HepaRG cells, 1,000 nM, MOE/deoxy/cEt oligonucleotides (Example 3)
Type: cell-based
Conditions: HepaRG cells, electroporation with 1,000 nM antisense oligonucleotide
How it was run: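 Readout is percent PKK mRNA reduction against untreated controls, by real-time PCR (RTS3454) adjusted for total RNA via RIBOGREEN. Oligonucleotides, phosphorothioate gapmers of 16 nucleosides with cEt, MOE and deoxy sugars, were delivered at 1,000 nM by electroporation to 20,000 HepaRG cells/well for roughly 24 h.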

[1] = Table 20, approximately 24 hours, PKK mRNA by RT-PCR (RTS3454), relative to untreated control cells
[2] = Table 22 experiment, approx. 24 hours, PKK mRNA by RT-PCR (RTS3454), relative to untreated control cells
[3] = approximately 24 hours, primer probe set RTS3454, relative to untreated control cells, experiment of Table 23

Substance	% inhibition [1]	% inhibition [2]	% inhibition [3]
547880 (eT*eT*k[5mC]*dA*dA*d[5mC]*dA*d[5mC]*dT*dG*d[5mC]*dT*dA*kA*k[5mC]*e[5mC]; antisense) [compound 547880]	69%	59%	–
547881 (eA*eT*kT*d[5mC]*dT*dT*d[5mC]*dA*dA*d[5mC]*dA*d[5mC]*dT*kG*k[5mC]*eT; antisense) [compound 547881]	0%	50%	–
547882 (e[5mC]*eT*kG*dG*d[5mC]*dA*dG*d[5mC]*dG*dA*dA*dT*dG*kT*kT*eA; antisense) [compound 547882]	91%	96%	–
547883 (eA*e[5mC]*kT*dG*dG*d[5mC]*dA*dG*d[5mC]*dG*dA*dA*dT*kG*kT*eT; antisense) [compound 547883]	99%	0%	–
547884 (e[5mC]*eG*kT*dG*dG*d[5mC]*dA*dT*dA*dT*dG*dA*dA*kA*kA*eA; antisense) [compound 547884]	87%	49%	–
547885 (e[5mC]*eT*k[5mC]*dT*dG*d[5mC]*d[5mC]*dT*dT*dG*dT*dG*dA*kA*kA*eT; antisense) [compound 547885]	45%	57%	–
547886 (e[5mC]*eG*kG*dT*dA*d[5mC]*dT*d[5mC]*dT*dG*d[5mC]*d[5mC]*dT*kT*kG*eT; antisense) [compound 547886]	97%	89%	–
547887 (e[5mC]*e[5mC]*kG*dG*dT*dA*d[5mC]*dT*d[5mC]*dT*dG*d[5mC]*d[5mC]*kT*kT*eG; antisense) [compound 547887]	–	99%	–
547888 (eT*e[5mC]*k[5mC]*dG*dG*dT*dA*d[5mC]*dT*d[5mC]*dT*dG*d[5mC]*k[5mC]*kT*eT; antisense) [compound 547888]	–	99%	–
547889 (eT*eT*k[5mC]*d[5mC]*dG*dG*dT*dA*d[5mC]*dT*d[5mC]*dT*dG*k[5mC]*k[5mC]*eT; antisense) [compound 547889]	91%	97%	–
547890 (eT*eT*kG*dT*dT*d[5mC]*d[5mC]*dG*dG*dT*dA*d[5mC]*dT*k[5mC]*kT*eG; antisense) [compound 547890]	97%	90%	–
547891 (eA*eT*kT*dG*dT*dT*d[5mC]*d[5mC]*dG*dG*dT*dA*d[5mC]*kT*k[5mC]*eT; antisense) [compound 547891]	84%	88%	–
547892 (e[5mC]*eA*kA*dT*dT*dG*dT*dT*d[5mC]*d[5mC]*dG*dG*dT*kA*k[5mC]*eT; antisense) [compound 547892]	29%	28%	–
547893 (eG*e[5mC]*kA*dA*dT*dT*dG*dT*dT*d[5mC]*d[5mC]*dG*dG*kT*kA*e[5mC]; antisense) [compound 547893]	81%	80%	–
547894 (eG*eG*k[5mC]*dA*dA*dT*dT*dG*dT*dT*d[5mC]*d[5mC]*dG*kG*kT*eA; antisense) [compound 547894]	92%	91%	–
547895 (eA*eG*kG*d[5mC]*dA*dA*dT*dT*dG*dT*dT*d[5mC]*d[5mC]*kG*kG*eT; antisense) [compound 547895]	–	94%	–
547896 (eT*eA*kG*dG*d[5mC]*dA*dA*dT*dT*dG*dT*dT*d[5mC]*k[5mC]*kG*eG; antisense) [compound 547896]	–	95%	–
547897 (eA*eT*kA*dG*dG*d[5mC]*dA*dA*dT*dT*dG*dT*dT*k[5mC]*k[5mC]*eG; antisense) [compound 547897]	–	82%	–
547898 (e[5mC]*eT*kT*dT*dA*dA*dT*dA*dG*dG*d[5mC]*dA*dA*kT*kT*eG; antisense) [compound 547898]	0%	28%	–
547899 (eG*eT*kA*d[5mC]*dT*dT*dT*dA*dA*dT*dA*dG*dG*k[5mC]*kA*eA; antisense) [compound 547899]	49%	68%	–
547900 (eT*eG*kT*dA*d[5mC]*dT*dT*dT*dA*dA*dT*dA*dG*kG*k[5mC]*eA; antisense) [compound 547900]	93%	68%	–
547901 (e[5mC]*eT*kG*dT*dA*d[5mC]*dT*dT*dT*dA*dA*dT*dA*kG*kG*e[5mC]; antisense) [compound 547901]	77%	85%	–
547902 (eA*e[5mC]*kT*dG*dT*dA*d[5mC]*dT*dT*dT*dA*dA*dT*kA*kG*eG; antisense) [compound 547902]	20%	33%	–
547903 (e[5mC]*eT*k[5mC]*dA*dG*d[5mC]*dA*d[5mC]*d[5mC]*dT*dT*dT*dA*kT*kA*eG; antisense) [compound 547903]	62%	6%	–

Substance	% inhibition [1]	% inhibition [2]	% inhibition [3]
547904 (eA*e[5mC]*kT*d[5mC]*dA*dG*d[5mC]*dA*d[5mC]*d[5mC]*dT*dT*dT*kA*kT*eA; antisense) [compound 547904]	56%	41%	–
547905 (eT*eA*k[5mC]*dT*d[5mC]*dA*dG*d[5mC]*dA*d[5mC]*d[5mC]*dT*dT*kT*kA*eT; antisense) [compound 547905]	20%	59%	–
547906 (eT*eT*kA*d[5mC]*dT*d[5mC]*dA*dG*d[5mC]*dA*d[5mC]*d[5mC]*dT*kT*kT*eA; antisense) [compound 547906]	59%	70%	–
547907 (eA*eT*kT*dT*d[5mC]*dT*dG*dA*dA*dA*dG*dG*dG*k[5mC]*kA*e[5mC]; antisense) [compound 547907]	27%	27%	–
547908 (e[5mC]*eA*kA*dT*dT*dT*d[5mC]*dT*dG*dA*dA*dA*dG*kG*kG*e[5mC]; antisense) [compound 547908]	94%	71%	–
547909 (e[5mC]*e[5mC]*kA*dA*dT*dT*dT*d[5mC]*dT*dG*dA*dA*dA*kG*kG*eG; antisense) [compound 547909]	82%	51%	–
547910 (eA*e[5mC]*k[5mC]*dA*dA*dT*dT*dT*d[5mC]*dT*dG*dA*dA*kA*kG*eG; antisense) [compound 547910]	26%	34%	–
547911 (eT*eG*kG*d[5mC]*dA*dA*d[5mC]*d[5mC]*dA*dA*dT*dT*dT*k[5mC]*kT*eG; antisense) [compound 547911]	0%	15%	–
547912 (eA*eT*k[5mC]*d[5mC]*dA*d[5mC]*dA*dT*d[5mC]*dT*dG*dA*dG*kA*kA*e[5mC]; antisense) [compound 547912]	23%	53%	–
547913 (eG*e[5mC]*kA*dA*d[5mC]*dA*dT*d[5mC]*d[5mC]*dA*d[5mC]*dA*dT*k[5mC]*kT*eG; antisense) [compound 547913]	71%	61%	–
547914 (eG*eG*k[5mC]*dA*dA*d[5mC]*dA*dT*d[5mC]*d[5mC]*dA*d[5mC]*dA*kT*k[5mC]*eT; antisense) [compound 547914]	74%	63%	–
547915 (eT*eG*kG*d[5mC]*dA*dA*d[5mC]*dA*dT*d[5mC]*d[5mC]*dA*d[5mC]*kA*kT*e[5mC]; antisense) [compound 547915]	0%	62%	–
547916 (e[5mC]*e[5mC]*kT*dG*dG*d[5mC]*dA*dA*d[5mC]*dA*dT*d[5mC]*d[5mC]*kA*k[5mC]*eA; antisense) [compound 547916]	70%	56%	–
547917 (eA*e[5mC]*k[5mC]*d[5mC]*dT*dG*dG*d[5mC]*dA*dA*d[5mC]*dA*dT*k[5mC]*k[5mC]*eA; antisense) [compound 547917]	33%	54%	–
547918 (eA*eA*k[5mC]*d[5mC]*d[5mC]*dT*dG*dG*d[5mC]*dA*dA*d[5mC]*dA*kT*k[5mC]*e[5mC]; antisense) [compound 547918]	1%	65%	–
547919 (eG*eA*kA*d[5mC]*d[5mC]*d[5mC]*dT*dG*dG*d[5mC]*dA*dA*d[5mC]*kA*kT*e[5mC]; antisense) [compound 547919]	41%	73%	–
547920 (eG*eA*kG*dA*dA*d[5mC]*d[5mC]*d[5mC]*dT*dG*dG*d[5mC]*dA*kA*k[5mC]*eA; antisense) [compound 547920]	–	–	52%
547921 (eT*eG*kA*dG*dA*dA*d[5mC]*d[5mC]*d[5mC]*dT*dG*dG*d[5mC]*kA*kA*e[5mC]; antisense) [compound 547921]	–	–	43%
547923 (eA*eT*k[5mC]*dT*dG*dG*dA*dG*dT*dG*dA*dG*dA*kA*k[5mC]*e[5mC]; antisense) [compound 547923]	–	–	68%
547924 (eG*eT*k[5mC]*d[5mC]*dG*dA*d[5mC]*dA*d[5mC]*dA*d[5mC]*dA*dA*kA*kA*eG; antisense) [compound 547924]	–	–	53%
547925 (eG*eG*kT*d[5mC]*d[5mC]*dG*dA*d[5mC]*dA*d[5mC]*dA*d[5mC]*dA*kA*kA*eA; antisense) [compound 547925]	–	–	16%
547928 (eG*eA*kT*dG*dG*dT*d[5mC]*d[5mC]*dG*dA*d[5mC]*dA*d[5mC]*kA*k[5mC]*eA; antisense) [compound 547928]	–	–	70%
547929 (eA*eG*kA*dT*dG*dG*dT*d[5mC]*d[5mC]*dG*dA*d[5mC]*dA*k[5mC]*kA*e[5mC]; antisense) [compound 547929]	–	–	65%
